Source: ChEMBL document CHEMBL1159171, “Symmetry-based HIV protease inhibitors containing a hydroxy bis-urea isostere” (Bioorg Med Chem Lett, 1994)

Molecular target: Human immunodeficiency virus type 1 protease (Human immunodeficiency virus 1) (UniProt Q72874)
Assay: In vitro inhibitory activity against HIV-1 protease at a concentration of 10 uM

inhibition [%]	SMILES
16	CON[C@@H](C(=O)NC(=O)N(Cc1ccccc1)CC(O)CN(Cc1ccccc1)C(=O)NC(=O)[C@H](NOC)C(C)C)C(C)C (single isomer, unassigned)
19	O=C(NCc1ccccc1)N(Cc1ccccc1)CC(O)CN(Cc1ccccc1)C(=O)NCc1ccccc1
50	CC(C)(C)NC(=O)N(Cc1ccccc1)CC(O)CN(Cc1ccccc1)C(=O)NC(C)(C)C
67	CC(C)(C)NC(=O)N(Cc1cccc(O)c1O)CC(O)CN(Cc1cccc(O)c1O)C(=O)NC(C)(C)C
8	CC(C)(C)NC(=O)NCC(O)CNC(=O)NC(C)(C)C
16	O=C(Nc1ccccc1)N(Cc1ccccc1)CC(O)CN(Cc1ccccc1)C(=O)Nc1ccccc1

The next lines start with the compound.

SMILES	inhibition [%]
CCCNC(=O)N(Cc1ccccc1)CC(O)CN(Cc1ccccc1)C(=O)NCCC	38
CC(C)(C)NC(=O)N(Cc1ccccc1O)CC(O)CN(Cc1ccccc1O)C(=O)NC(C)(C)C	11
CC(C)(C)NC(=O)N(Cc1cccc(O)c1)CC(O)CN(Cc1cccc(O)c1)C(=O)NC(C)(C)C	67
CC(C)[C@H](NC(=O)OCc1ccccc1)C(=O)N[C@@H](Cc1ccccc1)C(O)[C@H](Cc1ccccc1)NC(=O)[C@@H](NC(=O)OCc1ccccc1)C(C)C	3
CC(C)(C)OC(=O)NC(=O)N(Cc1ccccc1)CC(O)CN(Cc1ccccc1)C(=O)NC(=O)OC(C)(C)C	28
CC(C)(C)N(Cc1ccccc1)C(=O)NCC(O)CNC(=O)N(Cc1ccccc1)C(C)(C)C	17.5
CON[C@H](C(=O)NC(=O)N(Cc1ccccc1)CC(O)CN(Cc1ccccc1)C(=O)NC(=O)[C@@H](NOC)C(C)C)C(C)C	36
CC(C)(C)NC(=O)N(Cc1ccccc1)C[C@H](O)[C@@H](O)CN(Cc1ccccc1)C(=O)NC(C)(C)C	78
CC(C)CN(CC(O)CN(CC(C)C)C(=O)NC(C)(C)C)C(=O)NC(C)(C)C	25
